The structures appear in SMILES notation. “Also recorded” adds a separate entry of the source.

Data set [1] in a line: Serum ALT/bilirubin and hepatic histology after GC-1 or T3. Type of data set: in vivo, mice. On the procedure: (§1) All studies on mice were performed in strict accordance with Guidelines. Eight-week old male C57BL/6 male mice (Jackson/Charles River) were maintained on a standard laboratory basal diet (Test Diet) (n=4), or fed a T3-supplemented diet (4 mg/Kg of diet, Sigma Chemicals, St. Louis Mo.) (n=4). GC-1 was administered to the eight week-old male C57BL/6 male mice either via GC-1-supplemented diet (5 mg/Kg of diet, Medchem Express) for 8 days (n=4) or via daily intraperitoneal injections (IP) of GC-1 dissolved in DMSO (0.3 mg/kg/dose) for 8 days (n=7). As a control group for injections, DMSO alone was injected daily intraperitoneal (IP) for 8 days (n=5). Mice were sacrificed 24 hours after the last injection.

Data set [2] deals with hepatocytes. Kind of data set: T3- or GC-1-supplemented diet in wild type mice: hepatocyte proliferation. It is filed as in vivo. As to the method: as §1
To label dividing hepatocytes, BrdU (5-bromodeoxyuridine) dissolved in drinking water (1 mg/ml) was given to all animals throughout the experiment period. The animals were given food and water ad libitum with a 12-hour light/dark daily cycle.
Four micron liver sections were analyzed by immunohistochemistry for β-Catenin (BD Biosciences, San Jose, Calif.), Cyclin-D1 (Thermo-Scientific, Fremont, Calif.) and PCNA (Santa Cruz Biotechnology, Dallas, Tex.). Briefly, formalin-fixed sections were deparaffinized in graded xylene and alcohol. Endogenous peroxidase was inactivated using 3% hydrogen peroxide (Sigma). For β-Catenin, Cyclin-D1 staining, slides were microwaved in Citrate buffer followed by blocking with Superblock for 10 minutes. Sections were then incubated with secondary anti-mouse (for β-catenin) or anti-rabbit (for Cyclin-D1) horseradish peroxidase-conjugated antibody for 30 minutes.
Bromodeoxyuridine (BrdU) was stained with mouse antibody (Becton Dickinson) as previously described (Fanti et al. (2014) Hepatology 59, 2309-2320). Briefly, tissue sections were deparaffinized, exposed to 0.3% hydrogen peroxide in deionized water for 10 minutes to block endogenous peroxidase, treated with 2N HCl, incubated with trypsin 0.1% for 20 minutes and then with normal goat serum for 20 minutes at room temperature. Sections were then incubated overnight in cold room with anti-BrdU monoclonal antibody, followed by biotinylated goat anti-mouse IgG. DAB kit was then applied, and sections were counterstained with hematoxylin. A small segment of intestine was included from each mouse as a positive control for the staining. For quantification of BrdU staining, at least 10 high power fields (400× or 600×) fields each from at least three biological replicates were counted as indicated in the figures. Statistical analysis was performed as described below.

The test system of data set [3] is hepatocytes. Kind of data set: T3 or GC-1 in LRP5-6 LKO mice and littermate controls. It is filed as in vivo. On the procedure: Eight to 10 week-old LRP5-6-LKO were obtained from breeding homozygous LRP5-6 double floxed mice with albumin-cre transgenic mice as described previously (Yang et al. (2014) Hepatology 60, 964-976). LRP5-6-LKO or sex matched littermate controls were given either T3-supplemented diet (n=4), basal diet (n=3), IP GC-1 (n=3) or IP DMSO (n=3). Mice were sacrificed at 24 hours after the last IP injection.
To label dividing hepatocytes, BrdU (5-bromodeoxyuridine) dissolved in drinking water (1 mg/ml) was given to all animals throughout the experiment period. The animals were given food and water ad libitum with a 12-hour light/dark daily cycle. […]
Protein extraction from frozen liver tissue and western blot analysis were performed as previously described (Fanti et al., (2014) Hepatology 59, 2309-2320). For protein extraction, a small amount of frozen liver tissue was obtained (over dry ice) and was homogenized using RIPA buffer with protease and phosphatase inhibitor cocktail (Sigma, St. Louis, Mo.). Samples were transferred to a 1.5 ml tube on ice, and spun in cold room centrifuge at 14,000 RPM for 5 minutes. Pellet was then discarded and sample was aliquoted and stored at −80 C for use. Fifty micrograms of the proteins were resolved by sodium dodecyl sulfate-polyacrylamide gel electrophoresis analysis, and transferred to immobilon-polyvinylidene difluoride membranes.
The primary antibodies used were against β-catenin (BD Biosciences); pSer675-β-catenin, pSer552-β-catenin, Active-β-catenin (Cell-Signaling), Cyclin-D1 (Thermo-Scientific), and β-Actin (Sigma). Dilutions of primary antibody were done according to manufacturer recommendations (1:1000 for all except Cyclin-D1 which was 1:200). Horseradish peroxidase-conjugated secondary antibodies used were goat anti-mouse (1:20,000) and goat anti-rabbit (1:10,000) (Millipore). The proteins were detected by Super-Signal West Pico Chemiluminescense Substrate (Thermo Scientific, Rockford Ill.) and visualized by autoradiography. […]

Data set [4] has as its system β-catenin-TCF4 reporter activity in Hep3B cells (wild-type CTNNB1). The data set is described as follows: TopFlash reporter assay in Hep3B cells. Type of data set: cell-based, human. The conditions noted are these: 7 μM GC-1 (methods: 5-7 μM, 24 hours), vs DMSO. The text has this:
(§2) Three liver tumor cell lines Hep3B, HepG2 and Snu-398 cells were obtained from ATCC (Manassas, Va.). Cells were transfected simultaneously with Renilla reniformis luciferase (pRL-TK; Promega, Madison, Wis.) as a transfection control and TopFlash firefly luciferase plasmids (Upstate Biotechnology, Lake Placid, N.Y.), which contains three copies of the Tcf/Lef sites upstream of a thymidine kinase (TK) promoter and the firefly luciferase gene using Lipofectamine 2000 (Life Technologies). Twenty-four hours after transfection, cells were treated with either DMSO (Fisher Scientific) or 5-7 μM GC-1 (Medchem Express, Monmouth Junction, N.J.) for 24 hours. Lysates were harvested using the Dual-Luciferase Reporter Assay System (Promega, Madison, Wis.). Firefly luciferase signals were normalized to Renilla luciferase and ratio between groups compared by student's t-test to determine significance. P<0.05 was considered significant.
(In general: Reporter assays use an easily measured gene product as a stand-in for the process of interest.)

For data set [5], the system named is β-catenin-TCF4 reporter activity in HepG2 cells (exon-3-deletion mutant of CTNNB1). Kind of data set: TopFlash reporter assay in HepG2 cells. It is filed as cell-based, human. The conditions noted are these: (methods: 5-7 μM, 24 hours), vs DMSO.
From the text: as §2

[6] abbreviates: T3 (4 mg/Kg of diet) or GC-1 (5 mg/Kg of diet) chow 8 days, vs basal diet.

As to `Cc1cc(OCC(=O)O)cc(C)c1Cc1ccc(O)c(C(C)C)c1` [GC-1, Sobetirome], the “serum ALT or total bilirubin” value in data set [1] (GC-1 0.3 mg/Kg/dose daily IP 8 days, vs DMSO control) is “insignificant differences”. In data set [1] (GC-1 daily IP 8 days, vs DMSO control), the “hepatic histology (H&E)” value was “normal hepatic histology”. Further, in data set [1] (setting [6]), the “histological changes in the livers” value is reported as “no histological changes”. Moreover, the “hepatocyte proliferation relative to T3” value in data set [2] (GC-1 diet versus T3 diet, 8 days) is “modestly less extent than T3”. Further, the BrdU incorporation entry in data set [2] (setting [6]) was “increased BrdU incorporation”. Besides, the “cyclin-D1 staining in hepatocytes” value in data set [2] (T3 diet or IP GC-1, 8 days, vs respective controls) is recorded as “notably increased cyclin-D1 staining”. Further, the “cyclin-D1 staining in hepatocytes” value in data set [2] (T3 or GC-1 supplemented diet 8 days, vs basal diet) is “increased in both groups”. Further, the “BrdU-positive hepatocytes, T3 diet versus IP GC-1” value in data set [2] (T3 supplemented diet versus IP GC-1, 8 days, p<0.001 between groups) was “overall fewer number of BrdU-positive hepatocytes”. Moreover, the “pSer675-β-catenin levels, Western blot” value in data set [3] (LRP5-6-LKO and littermate controls) is “comparable or even greater levels”. The “pSer552-β-catenin levels, Western blot” value in data set [3] (LRP5-6 LKO) was “modest increase”. Moreover, in data set [3] (LRP5-6 LKO after T3 or GC-1 feeding vs basal diet), the “active β-catenin levels” value was “no notable differences”. Further, in data set [3] (LRP5-6 LKO vs controls), the “cyclin-D1 protein and mRNA expression” value is “decreased”; the “numbers of cyclin-D1-positive hepatocytes (immunohistochemistry)” value is “notably decreased”; the “total β-catenin levels” value is given as “comparable levels”. The “number of BrdU-labeled hepatocyte nuclei” value in data set [3] (LRP5-6 LKO vs controls, T3 diet 4 mg/Kg of diet or GC-1 0.3 mg/Kg/dose IP 8 days) was “notable decrease”. Besides, in data set [3] (control mice fed T3 or GC-1 diet for 8 days vs basal diet), the “active β-catenin levels in liver lysates” value was “dramatic increase”. Moreover, the “TopFlash luciferase reporter activity” value in data set [4] is “no significant effect; also recorded: insignificant differences”. Moreover, the “TopFlash luciferase reporter activity” value in data set [5] is “no significant effect; also recorded: insignificant differences”.

Source of the values: patent publication US10780069B2, “Use of GC-1 in transplant related population” (University of Pittsburgh—Of the Commonwealth System of …, priority 2017, dated 2020).
